Measurements: US8071533B2, “Compositions and methods for modulating store-operated calcium entry” (University of Medicine and Dentistry of New Jersey, priority 2006, dated 2011)

How the values were obtained:
[1] = system: human embryonic palatal mesenchymal (HEPM) cells; experiment: Intracellular Ca store release in HEPM cells (Fura-2 ratio, PTI cuvette); type: cell-based; details: for Mobilization of Ca from endoplasmic reticulum (ER) stores: HEPM cells loaded with Fura-2
Protocol: (§1) HEPM cells were loaded with 10 μM Fura-2 AM (Invitrogen, Carlsbad, Calif.) for 45 min at 37° C. and allowed to de-esterify for 15 min at 25° C. Cells were then harvested and re-suspended in balanced salt solution (BSS) containing (in mM): 140 NaCl, 2.8 KCl, 2 CaCl2, 2 MgCl2, 10 HEPES, pH 7.2. 2.5×10^6 cells were transferred into the cuvette system of a PTI spectrofluorometer (Photon Technology International, Princeton, N.J.) and the changes in [Ca]i were measured as changes in the ratio of Fura-2 fluorescence at excitation wavelength of 350 nm (F350) and 380 nm (F380), following exposure to various concentrations of thapsigargin, ionomycin or caffeine and ryanodine (C/R). For measurement in 0.5 mM EGTA, cells were centrifuged and re-suspended in BSS without CaCl2, and 0.5 mM EGTA was added immediately before recordings. Measurement of Ca in individual C2C12 myotubes were performed as described before (Shin, D. W. et al. 2003. J. Biol. Chem. 278:3286-3292). All experiments were conducted at 25±2° C.

SOCE in HEPM cells = experiment: SOCE by Mn quenching of Fura-2 in HEPM cells; type: cell-based, human
Protocol: (§2) Manganese (Mn^2+) is known to be able to permeate into cells via store-operated Ca channels (SOCs), but is impervious to surface membrane extrusion processes or SR uptake by Ca pumps. […] Briefly, to measure the Mn^2+ influx rate through the SOC machinery, thapsigargin (TG), or C/R, was applied to cultured cells or C2C12 myotubes to induce SR Ca depletion in 0 mM extracellular CaCa ([CaCa]o), then 0.5 mM Mn^2+ was added to the extracellular solution. The quenching of Fura-2 fluorescence by Mn^2+ was measured at the Ca-independent excitation wavelength of Fura-2 (360 nm). The decay of Fura-2 fluorescence upon Mn^2+ addition was expressed as percent decrease in Fura-2 fluorescence per unit time (the initial fluorescence is set equal to 100%). For all measurements of SOCE by Mn^2+ quenching, the maximally quenched fluorescence signal was established at the end of the experiment by lysing the cells with 1% Triton, and set equal to 0% fluorescence.

SOCE in NRP-154 cells = details: 10 μM 2-APB, NRP-Con and NRP-Bax cells, TG-depleted
Protocol: The role of SOCE in Ca signaling in NRP-154 cells was examined. […] Following ER Ca depletion (200 s treatment), 0.5 mM MnCl2 was added into cuvettes containing 1×10^6 NRP-154 cells loaded with Fura-2. The quenching of Fura-2 fluorescence by the entry of Mn^2+ provided a quantitative assay of SOCE. Specifically, the slope of reduction of Fura-2 fluorescence with time reflected the degree of SOCE activation.

SOCE in C2C12 myotubes = experiment: SOCE by Mn quenching of Fura-2 in C2C12 myotubes; type: cell-based, mouse
Protocol: as §1, with “Measurement of Ca in individual C2C12 myotubes were performed as described before (Shin, D. W. et al. 2003. J. Biol. Chem. 278:3286-3292).” left out
as §2

[2] = Solubility of recombinant P311 expressed in E. coli; type: physicochemical; details: E. coli lysate, a portion of the overexpressed protein
Protocol: Using standard recombinant DNA technology, the full-length P311 protein was cloned into a T7-based expression plasmid with a 6× His-tag at either the amino-terminus (pET15b, Novagen) or the carboxy-terminus (pET21b, Novagen) and as a fusion protein with glutathione S-transferase (GST) in plasmid pGEX-2T (Pharmacia). In addition, the untagged P311 was cloned into a T7-based bacterial expression vector pG5 (Alexander, P. et al. 1992. Biochemistry 31:3597-3603). The bacterial host is grown for 12-14 hours at room temperature or for 4 hours at 37° C. after induction with 0.2 mM IPTG. Robust expression for the amino-terminal His6-tagged P311 protein […] was observed; the amino-terminal His6-tagged P311 protein was soluble. The soluble fraction of the His6-tagged P311 protein in the E. coli lysate was purified over a Ni-NTA agarose column. The protein was eluted by 250 mM immidazole and further purified by […] chromatography (Source-15S, Pharmacia) and gel-filtration chromatography (Superdex-200, Pharmacia). The P311 protein was purified to greater than 80% homogeneity as judged on SDS-PAGE. The concentration of P311 was determined by spectroscopic measurement at 280 nm.

STIM1 = target: T1, STIM1 (Homo sapiens, UniProt Q13586); experiment: Co-immunoprecipitation of P311 with STIM1 in CHO cell lysates; type: binding; details: anti-P311 and anti-STIM1
T1 construct: host or cells: CHO cells (transient transfection)
T1 sequence (Q13586 23-685): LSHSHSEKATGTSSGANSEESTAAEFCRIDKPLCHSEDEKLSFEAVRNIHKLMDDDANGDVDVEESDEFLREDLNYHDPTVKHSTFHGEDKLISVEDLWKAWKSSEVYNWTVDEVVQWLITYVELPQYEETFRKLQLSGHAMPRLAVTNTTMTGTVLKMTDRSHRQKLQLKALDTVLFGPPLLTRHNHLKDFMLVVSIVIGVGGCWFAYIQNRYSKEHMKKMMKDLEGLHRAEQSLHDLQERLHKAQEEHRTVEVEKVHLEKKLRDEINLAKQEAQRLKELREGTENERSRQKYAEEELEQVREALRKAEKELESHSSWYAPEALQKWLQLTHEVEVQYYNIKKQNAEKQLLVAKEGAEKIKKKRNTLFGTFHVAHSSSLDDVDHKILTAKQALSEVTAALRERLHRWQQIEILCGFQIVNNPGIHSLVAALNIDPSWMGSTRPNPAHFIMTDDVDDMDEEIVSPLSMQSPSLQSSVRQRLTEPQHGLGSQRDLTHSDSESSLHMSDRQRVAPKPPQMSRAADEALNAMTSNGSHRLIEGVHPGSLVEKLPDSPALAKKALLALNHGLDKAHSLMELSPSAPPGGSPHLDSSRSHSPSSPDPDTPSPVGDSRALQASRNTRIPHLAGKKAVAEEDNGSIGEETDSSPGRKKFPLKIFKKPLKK
Protocol: (§3) Next, the interaction of P311 with SOCE molecular machinery was examined experimentally. The interaction of P311 with known components of SOCE, such as STIM1 and Orai1, was studied. A GFP-myc-Orai1 plasmid and the mammalian expression plasmid containing the human STIM1 cDNA (OriGene, Inc.) were used. The plasmids were transfected into CHO cells and 36 hours after transfection, total cell lysates from CHO cells transiently expressing GFP-myc-Orai1 were incubated with either a polyclonal antibody against P311, or an anti-myc monoclonal antibody, with normal rabbit IgG serving as the control. […] Similar results were obtained when co-IP assays were repeated using reversible cross-linker DSP and different detergents in cell lysis buffer, including Triton X-100, NP-40 and CHAPS.

Orai1 = target: T2, Orai1 (Homo sapiens, UniProt Q96D31); experiment: Co-immunoprecipitation of P311 with Orai1 in CHO cell lysates; type: binding; details: CHO lysates expressing GFP-myc-Orai1; anti-myc and anti-P311
T2 construct: expressed in transfected cells; host or cells: CHO cells (transient transfection, lysate 36 h after transfection)
T2 sequence (Q96D31 whole entry, species assumed): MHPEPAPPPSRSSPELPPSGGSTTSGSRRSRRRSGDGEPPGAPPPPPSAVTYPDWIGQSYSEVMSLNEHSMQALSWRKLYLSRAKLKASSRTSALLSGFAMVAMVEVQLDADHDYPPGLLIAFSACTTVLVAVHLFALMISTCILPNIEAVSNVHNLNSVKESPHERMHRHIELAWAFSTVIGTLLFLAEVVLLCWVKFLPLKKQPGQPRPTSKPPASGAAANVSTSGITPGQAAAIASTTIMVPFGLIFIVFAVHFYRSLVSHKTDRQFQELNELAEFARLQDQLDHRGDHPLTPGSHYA
Protocol: as §3

For `Nc1ncnc2c1ncn2[C@@H]1O[C@H](COP(=O)(O)OP(=O)(O)OP(=O)(O)O)[C@@H](O)[C@H]1O` [ATP, adenosine triphosphate], the “Ca release on ATP stimulation in LPS-treated cells” value ([1]; ATP 1 or 3 mM, LPS-treated HEPM cells) was “no effect” and the “Mobilization of Ca from endoplasmic reticulum (ER) stores” value (from here on “Mobilization of Ca”) [1] was “not responsive”.

In the case of `[K+]` [potassium], the “Mobilization of Ca” value [1] is reported as “not responsive”.

With `C[C@H](CCC(=O)O)C[C@H](C)C[C@H](C)C(=O)/C=C(\O)[C@H](C)C[C@H](C)C/C=C/[C@@H](C)[C@@H](O)[C@@H](C)[C@@H](O)C[C@@H]1CC[C@@](C)([C@H]2CC[C@@](C)([C@@H](C)O)O2)O1` [ionomycin] the “Mobilization of Ca” value [1] was “reveals a large store of Ca available for release” and the “Activation of SOCE following Ca store depletion” value (SOCE in HEPM cells) was “rapid activation of SOCE”.

With `NCCOB(c1ccccc1)c1ccccc1` [2-APB, 2-aminoethoxydiphenyl borate] the “Effect on SOCE (Mn quenching of Fura-2)” value (SOCE in NRP-154 cells) was “inhibited SOCE”, the “Effect on PTZ-triggered Mn quenching of Fura-2 fluorescence” value (SOCE in C2C12 myotubes; C2C12 myotubes) was “inhibited” and the “Effect on TG-initiated Mn entry through SOCE” value (SOCE in C2C12 myotubes; C2C12 myotubes, 2-APB 20 μM) was “blocked”.

In the case of `C1CCc2nnnn2CC1` [PTZ, pentylenetetrazol], the “Effect on SOCE in shRNA-treated myotubes” value (SOCE in C2C12 myotubes; C2C12 myotubes transfected with shRNA against P311) is reported as “absent”, the “SR Ca filling status” value (SOCE in C2C12 myotubes; C2C12 myotubes treated with PTZ) is reported as “without affecting the SR Ca filling status” and the “Activation of SOCE (Mn entry)” value (SOCE in C2C12 myotubes; C2C12 myotubes, 20 mM PTZ, no SR Ca depletion) is reported as “induced the activation of SOCE”.

For `C/C=C(/C)C(=O)O[C@H]1C(C)=C2[C@H]([C@@H]1OC(=O)CCCCCCC)[C@@](C)(OC(C)=O)C[C@H](OC(=O)CCC)[C@@]1(O)[C@H]2OC(=O)[C@@]1(C)O` [thapsigargin], the “Activation of SOCE following Ca store depletion” value (SOCE in HEPM cells) was “rapid activation of SOCE”.

B1: His6-tagged P311: full-length P311 with amino-terminal 6x His-tag expressed in E. coli (protein, UniProt Q16612 1-68, looked up)
chain: MVYYPELFVWVSQEPFPNKDMEGRLPKGRLPVPKEVNRKKNDETNAASLTPLGSSELRSPRISYLHFF
modifications: full-length N-terminal His6 tag
notes: full-length P311 with amino-terminal 6x His-tag expressed in E. coli
With B1 the “Solubility of overexpressed protein” value [2] was “soluble”.

B2: P311: 68 amino acid, 8 kDa cytosolic protein (SEQ ID NO: 1 human, SEQ ID NO: 10 mouse) regulating SOCE (protein)
chain: MVYYPGLLVWVSQEPFLYKEMEGSLTKGRLPVPKEVNRKKLEEARAASMTPPGSHELCFPNISYL
With B2 the “Co-immunoprecipitation with STIM1” value (STIM1) was “could not immunoprecipitation” and the “Co-immunoprecipitation with Orai1” value (Orai1) was “physical interaction between P311 and Orai1”.
